{
  "source": "patent US11603570B2",
  "about": "“Methods for the detection and treatment of leukemias that are responsive to DOT1L inhibition” (MEMORIAL SLOAN KETTERING CANCER CENTER, priority 2013, dated 2023)",
  "origin": "cited, not measured here",
  "key": {"[1]": {"conditions": "rats; cited from earlier work"}, "[2]": {"test_system": "MLL-rearranged leukemia xenograft", "conditions": "cited from earlier work"}, "[3]": {"test_system": "MLL-translocated leukemia cells", "conditions": "infusion, including continuous infusion; cited from earlier work"}, "other methyltransferases": {"test_system": "other methyltransferases", "conditions": "in words; FIG. 1B; cited from earlier work"}, "[4]": {"conditions": "cited from earlier work"}, "[5]": {"conditions": "dogs; cited from earlier work"}, "[6]": {"conditions": "mice or rats, at a dose efficacious against MLL-translocated leukemia cells; cited from earlier work"}},
  "note": "Where two headings read alike, the source gives them in different places.",
  "data": [
    {"smiles": "CC(C)N(C[C@H]1O[C@@H](n2cnc3c(N)ncnc32)[C@H](O)[C@@H]1O)C1CC(CCc2nc3cc(C(C)(C)C)ccc3[nH]2)C1", "note": "(stereo partly drawn) [EPZ005676, (2R,3R,4S,5R)-2-(6-amino-9H-purin-9-yl)-5-((((1r,3S)-3-(2-(5-(tert-butyl)-1H-benzo[d]imidazol-2-yl)ethyl)cyclobutyl)(isopropyl)amino)methyl)tetrahydrofuran-3,4-diol]", "values": [
      {"measurement": "effective pharmacokinetic half-life in systemic circulation", "setting": "[1]", "result": 15, "unit": "min"},
      {"measurement": "tumor response at the highest dose", "setting": "[2]; continuous intravenous infusion for 21 days, highest dose", "result": "complete tumor regressions"},
      {"measurement": "anti-tumor activity", "setting": "[2]; continuous intravenous infusion for 21 days", "result": "dose-dependent anti-tumor activity"},
      {"measurement": "no regrowth after the cessation of treatment", "setting": "[2]; highest dose", "result": "up to 32 days"},
      {"measurement": "growth of MLL-translocated leukemia cells in mice", "setting": "[3]", "result": "suppresses the growth"},
      {"measurement": "specificity for DOT1L / H3K79me as compared to other methyl transferases", "setting": "other methyltransferases", "result": "highly selective"},
      {"measurement": "solubility in aqueous solution", "setting": "[4]", "result": "soluble"},
      {"measurement": "effective pharmacokinetic half-life in systemic circulation", "setting": "[5]", "result": 90, "unit": "min"},
      {"measurement": "hematopoietic toxicity", "setting": "[6]", "result": "did not show hematopoietic toxicity"}
    ]}
  ]
}
